Tested on: patients with postpartum depression (PPD)
Assay: Clinical trial of inhaled 5-MeO-DMT (individualized dosing regimen) in postpartum depression; one patient, 6 mg then 12 mg
Conditions: n=1; for MADRS Concentration Difficulties improvement / MADRS Concentration Difficulties score / MADRS Reduced appetite improvement / MADRS Reduced appetite score / MADRS Suicidal Thoughts improvement / MADRS Suicidal Thoughts score: baseline 0; for MADRS Inability to Feel improvement / MADRS Inability to Feel score / MADRS Lassitude improvement / MADRS Lassitude score: baseline 3; for MADRS Pessimistic Thoughts improvement / MADRS Pessimistic Thoughts score / MADRS Reported sadness improvement / MADRS Reported sadness score: baseline 4; for MADRS Apparent sadness improvement / MADRS Apparent sadness score / MADRS Inner Tension improvement / MADRS Inner Tension score / MADRS Reduced Sleep improvement / MADRS Reduced Sleep score / BPRS Emotional withdrawal improvement / BPRS Emotional withdrawal score: baseline 5; for BPRS Blunted affect improvement / BPRS Blunted affect score / BPRS Conceptual disorganization improvement / BPRS Conceptual disorganization score / BPRS Disorientation improvement / BPRS Disorientation score / BPRS Grandiosity improvement / BPRS Grandiosity score / BPRS Hallucinatory behaviour improvement / BPRS Hallucinatory behaviour score / BPRS Hostility improvement / BPRS Hostility score / BPRS Mannerisms and Posturing improvement / BPRS Mannerisms and Posturing score / BPRS Motor retardation improvement / BPRS Motor retardation score / BPRS Suspiciousness improvement / BPRS Suspiciousness score / BPRS Uncooperativeness improvement / BPRS Uncooperativeness score / BPRS Unusual Thought Content improvement / BPRS Unusual Thought Content score: baseline 1; for BPRS Excitement improvement / BPRS Excitement score: baseline 2; for BPRS Anxiety improvement / BPRS Anxiety score: baseline 7
Protocol: The single-arm, open-label clinical trial will involve 15 adult female patients with clinically diagnosed postpartum depression (PPD).
The second dose (12 mg) will only be administered if: • a. […] The 6 mg dose was safe and well-tolerated according to the investigator, • c. Any psychoactive effects (PsE) of the prior dose have subsided, and • d. Pre-dose vital parameters and forced expiratory volume in one second (FEV1) are in normal range, or if outside of the normal range, are not clinically significant according to the investigator. • 3. Similarly, a third dose (18 mg) will only be administered if: • a. […] The 12 mg dose was safe and well-tolerated according to the investigator, and • c. Any PsE of the prior dose have subsided, and • d. Pre-dose vital parameters and forced expiratory volume in one second (FEV1) are in normal range, or if outside of the normal range, are not clinically significant according to the investigator.
The patients will be assessed for a peak psychedelic experience (based on a patient-scored visual analogue scale, the PE scale), sedation, and other endpoints after dosing.
Follow-up visits are planned for Day 1, and Day 7 after the dosing day.
The following criteria must be met by all patients considered for clinical trial participation: • 1. Is female and in the age range between 18 and 45 years (inclusive) at screening. • 2. Has a body mass index (BMI) in the range of 18.5 and 35 kg/m^2 (inclusive) at screening. • 3. Meets the trial criteria for PPD as assessed by a trial psychiatrist or registered psychologist: • a. Diagnosis of Major Depressive Disorder without psychotic features, confirmed by the Mini-International Neuropsychiatric Interview (MINI), with peri-partum onset that began no earlier than gestation and no later than the first 4 weeks postpartum. • b. Has a Montgomery-Åsberg Depression Rating Scale (MADRS) total score of equal to or greater than 28 at screening and pre-dose on Day 0. • 6. […] Patients must have a negative pregnancy test at screening and on the pre-test day (Day −1). • 5. Is willing to delay start of other antidepressant or anxiety medication until after the end of the trial at Day 7 and agrees to keep any psychotherapy unchanged during the trial.
A potential patient who meets any of the following key exclusion criteria will be excluded from participation in this trial: • 1. Has, based on history, psychiatric assessment, and evaluation of the MINI, a current or prior diagnosis of bipolar disorder, a manic or hypomanic episode, a psychotic disorder, Major Depressive Disorder (MDD) or other mood disorder with psychotic features, obsessive compulsive disorder, post-traumatic stress disorder (PTSD), autism spectrum disorder, borderline personality disorder, schizophrenia, delusional disorder, paranoid personality disorder, schizoaffective disorder, clinically significant intellectual disability, or any other psychiatric comorbidity that renders the patient unsuitable for the trial according to the investigator's judgment. • 2. Has one or more first or second degree relatives with a current or previously diagnosed bipolar disorder, psychotic disorder or other mood disorder (including MDD) with psychotic features. • 3. Is in the judgement of a trial psychiatrist or registered psychologist, at significant risk for suicide based on history, psychiatric assessment, and evaluation of suicidal ideation and suicidal behaviour based on the Columbia-Suicide Severity Rating Scale (C-SSRS). • 4. Has taken anti-depressive medication within 14 days or 5 half-lives (whichever is longer) prior to dosing (exception: within the last 5 weeks in the case of fluoxetine). • 5.

## COc1ccc2[nH]cc(CCN(C)C)c2c1 [5-MeO-DMT]
  Adverse events (cramping left abdominal pain and headache, Day 0): mild, short-lasting and resolved spontaneously
  Criteria for MADRS response (at least 50% improvement) and MADRS remission (total score <=10): fulfilled standard criteria
  ECG (3 hours), safety laboratory analyses (7 days), CADSS (3 hours, 1 day, 7 days): unremarkable
  Tolerability of IDR (6 mg followed by 12 mg, inhalation): well tolerated
  Tolerability of the inhalation procedure: well tolerated with no inhalation-related adverse events
2 hr
  MADRS Concentration Difficulties improvement: 0
  MADRS Concentration Difficulties score: 0
  MADRS Reduced appetite improvement: 0
  MADRS Reduced appetite score: 0
  MADRS Suicidal Thoughts improvement: 0
  MADRS Suicidal Thoughts score: 0
  MADRS Inability to Feel improvement: 3
  MADRS Inability to Feel score: 0
  MADRS Lassitude improvement: 3
  MADRS Lassitude score: 0
  MADRS Pessimistic Thoughts improvement: 4
  MADRS Pessimistic Thoughts score: 0
  MADRS Reported sadness improvement: 4
  MADRS Reported sadness score: 0
  MADRS Apparent sadness improvement: 5
  MADRS Apparent sadness score: 0
  MADRS Inner Tension improvement: 5
  MADRS Inner Tension score: 0
  MADRS Reduced Sleep improvement: 0
  MADRS Reduced Sleep score: 5
Day 1
  MADRS Concentration Difficulties improvement: 0
  MADRS Concentration Difficulties score: 0
  MADRS Reduced appetite improvement: 0
  MADRS Reduced appetite score: 0
  MADRS Suicidal Thoughts improvement: 0
  MADRS Suicidal Thoughts score: 0
  BPRS Blunted affect improvement: 0
  BPRS Blunted affect score: 1
  BPRS Conceptual disorganization improvement: 0
  BPRS Conceptual disorganization score: 1
  BPRS Disorientation improvement: 0
  BPRS Disorientation score: 1
  BPRS Grandiosity improvement: 0
  BPRS Grandiosity score: 1
  BPRS Hallucinatory behaviour improvement: 0
  BPRS Hallucinatory behaviour score: 1
  BPRS Hostility improvement: 0
  BPRS Hostility score: 1
  BPRS Mannerisms and Posturing improvement: 0
  BPRS Mannerisms and Posturing score: 1
  BPRS Motor retardation improvement: 0
  BPRS Motor retardation score: 1
  BPRS Suspiciousness improvement: 0
  BPRS Suspiciousness score: 1
  BPRS Uncooperativeness improvement: 0
  BPRS Uncooperativeness score: 1
  BPRS Unusual Thought Content improvement: 0
  BPRS Unusual Thought Content score: 1
  BPRS Excitement improvement: 1
  BPRS Excitement score: 1
  MADRS Inability to Feel improvement: 3
  MADRS Inability to Feel score: 0
  MADRS Lassitude improvement: 3
  MADRS Lassitude score: 0
  MADRS Pessimistic Thoughts improvement: 4
  MADRS Pessimistic Thoughts score: 0
  MADRS Reported sadness improvement: 4
  MADRS Reported sadness score: 0
  BPRS Emotional withdrawal improvement: 4
  BPRS Emotional withdrawal score: 1
  MADRS Apparent sadness improvement: 5
  MADRS Apparent sadness score: 0
  MADRS Inner Tension improvement: 5
  MADRS Inner Tension score: 0
  MADRS Reduced Sleep improvement: 5
  MADRS Reduced Sleep score: 0
  BPRS Anxiety improvement: 6
  BPRS Anxiety score: 1
Day 1, baseline 6
  BPRS Depressive Mood improvement: 5
  BPRS Depressive Mood score: 1
  BPRS Guilt feelings improvement: 5
  BPRS Guilt feelings score: 1
  BPRS Somatic Concern improvement: 5
  BPRS Somatic Concern score: 1
  BPRS Tension score: 1
Day 7, Day 0 score 0
  BIMF item 2 (I feel rested) score: 2
  BIMF item 19 (getting better at taking care of my baby) score: 1
Day 7, Day 0 score 2
  BIMF item 18 (Anxiety or worry often interferes with my mothering ability) score: 5
Day 7, Day 0 score 3
  BIMF item 16 (I worry about how other people judge me (as a mother)) score: 5
Day 7, Day 0 score 4
  BIMF item 13 (taking good care of my physical needs) score: 5
Day 7, Day 0 score 5
  BIMF item 4 (My baby and I understand each other) score: 5
  BIMF item 5 (able to relax and enjoy time with my baby) score: 6
  BIMF item 9 (getting enough encouragement from other people) score: 6
  BIMF item 10 (I trust my own feelings (instincts) when taking care of my baby) score: 6
  BIMF item 11 (I take a little time each week to do something for myself) score: 6
  BIMF item 15 (My baby and I are getting into a routine) score: 6
  BIMF item 17 (able to take care of my baby and my other responsibilities) score: 5
Day 7, Day 0 score 6
  BIMF item 1 (I am a good mother) score: 6
  BIMF item 3 (comfortable with the way I've chosen to feed my baby) score: 6
  BIMF item 6 (people I can trust to care for my baby when I need a break) score: 6
  BIMF item 8 (getting enough adult interaction) score: 6
  BIMF item 12 (taking good care of my baby's physical needs) score: 6
  BIMF item 14 (good decisions about my baby's health and well being) score: 6
  BIMF item 20 (satisfied with the job I am doing as a new mother) score: 5
Day 7
  MADRS Concentration Difficulties improvement: 0
  MADRS Concentration Difficulties score: 0
  MADRS Reduced appetite improvement: 0
  MADRS Reduced appetite score: 0
  MADRS Suicidal Thoughts improvement: 0
  MADRS Suicidal Thoughts score: 0
  BPRS Blunted affect improvement: 0
  BPRS Blunted affect score: 1
  BPRS Conceptual disorganization improvement: 0
  BPRS Conceptual disorganization score: 1
  BPRS Disorientation improvement: 0
  BPRS Disorientation score: 1
  BPRS Grandiosity improvement: 0
  BPRS Grandiosity score: 1
  BPRS Hallucinatory behaviour improvement: 0
  BPRS Hallucinatory behaviour score: 1
  BPRS Hostility improvement: 0
  BPRS Hostility score: 1
  BPRS Mannerisms and Posturing improvement: 0
  BPRS Mannerisms and Posturing score: 1
  BPRS Motor retardation improvement: 0
  BPRS Motor retardation score: 1
  BPRS Suspiciousness improvement: 0
  BPRS Suspiciousness score: 1
  BPRS Uncooperativeness improvement: 0
  BPRS Uncooperativeness score: 1
  BPRS Unusual Thought Content improvement: 0
  BPRS Unusual Thought Content score: 1
  BPRS Excitement improvement: 1
  BPRS Excitement score: 1
  MADRS Inability to Feel improvement: 3
  MADRS Inability to Feel score: 0
  MADRS Lassitude improvement: 3
  MADRS Lassitude score: 0
  MADRS Pessimistic Thoughts improvement: 4
  MADRS Pessimistic Thoughts score: 0
  MADRS Reported sadness improvement: 4
  MADRS Reported sadness score: 0
  BPRS Emotional withdrawal improvement: 4
  BPRS Emotional withdrawal score: 1
  MADRS Apparent sadness improvement: 5
  MADRS Apparent sadness score: 0
  MADRS Inner Tension improvement: 4
  MADRS Inner Tension score: 1
  MADRS Reduced Sleep improvement: 5
  MADRS Reduced Sleep score: 0
  BPRS Anxiety improvement: 6
  BPRS Anxiety score: 1
Day 7, baseline 6
  BPRS Depressive Mood improvement: 5
  BPRS Depressive Mood score: 1
  BPRS Guilt feelings improvement: 5
  BPRS Guilt feelings score: 1
  BPRS Somatic Concern improvement: 5
  BPRS Somatic Concern score: 1
  BPRS Tension improvement: 5
  BPRS Tension score: 1
Day 7 vs Day 0
  BIMF functional domain Adjustment % improvement: 20.00%
  BIMF functional domain Adjustment Δ: 1
  BIMF functional domain Infant Care % improvement: 0.00%
  BIMF functional domain Infant Care Δ: 0
  BIMF functional domain Management % improvement: 18%
  BIMF functional domain Management Δ: 5
  BIMF functional domain Mother-Child Interaction Δ: 2
  BIMF functional domain Psychological Well-being Δ: 9
  BIMF functional domain Self-Care % improvement: 44%
  BIMF functional domain Self-Care Δ: 4
  BIMF functional domain Social Support Δ: 1
  BIMF item 10 (I trust my own feelings (instincts) when taking care of my baby) Δ: 1
  BIMF item 11 (I take a little time each week to do something for myself) Δ: 1
  BIMF item 16 (I worry about how other people judge me (as a mother)) Δ: 2
Day 7 vs Day 0 (92 to 105)
  BIMF total score percentage improvement: 14%
Discharge
  BPRS Blunted affect improvement: 0
  BPRS Blunted affect score: 1
  BPRS Conceptual disorganization improvement: 0
  BPRS Conceptual disorganization score: 1
  BPRS Disorientation improvement: 0
  BPRS Disorientation score: 1
  BPRS Grandiosity improvement: 0
  BPRS Grandiosity score: 1
  BPRS Hallucinatory behaviour improvement: 0
  BPRS Hallucinatory behaviour score: 1
  BPRS Hostility improvement: 0
  BPRS Hostility score: 1
  BPRS Mannerisms and Posturing improvement: 0
  BPRS Mannerisms and Posturing score: 1
  BPRS Motor retardation improvement: 0
  BPRS Motor retardation score: 1
  BPRS Suspiciousness improvement: 0
  BPRS Suspiciousness score: 1
  BPRS Uncooperativeness improvement: 0
  BPRS Uncooperativeness score: 1
  BPRS Unusual Thought Content improvement: 0
  BPRS Unusual Thought Content score: 1
  BPRS Excitement improvement: 1
  BPRS Excitement score: 1
  BPRS Emotional withdrawal improvement: 4
  BPRS Emotional withdrawal score: 1
  BPRS Anxiety improvement: 6
  BPRS Anxiety score: 1
Discharge, baseline 6
  BPRS Depressive Mood improvement: 5
  BPRS Depressive Mood score: 1
  BPRS Guilt feelings improvement: 5
  BPRS Guilt feelings score: 1
  BPRS Somatic Concern improvement: 5
  BPRS Somatic Concern score: 1
  BPRS Tension score: 1
Shortly after administration
  Changes in vital parameters: temporary, clinically non-relevant increase in heart rate and blood pressure

Source: patent US20250205200A1, “5-METHOXY-N,N-[…][…] THE TREATMENT OF […]” (GH RESEARCH IRELAND LIMITED, priority 2022, published 2025)
